Data from US20220296573A1, “NOVEL COMPOUNDS AND PHARMACEUTICAL COMPOSITIONS THEREOF FOR THE TREATMENT OF INFLAMMATORY DISORDERS” (Galapagos NV, priority 2019, published 2022).

Tests used:
Format in all cases: cell-based
[1] = tested on: TNFα mediated NFκB-reporter activity; test: THP1-Lucia NFκB reporter assay, TNFα trigger; conditions: THP-1-Lucia NFκB cells, TNFα 10 ng/mL, 24 h
Excerpt: (§1) This assay is used to evaluate the IRAK4 selectivity and potency of the compounds of the invention upon IRAK4 dependent (LPS and IL-1β) and independent triggering (TNFα), in a THP1-Lucia NFκB reporter assay.
(§2) THP-1-Lucia NFκB cells (Invivogen—5, rue Jean Rodier 31400 Toulouse France—cat #thp1-nfkb) were cultivated as recommended by the supplier using split cycles each cycle comprising a succession of thawing/expansion/seeding. The data reported were generated using cells having between 3 to 9 cycles. On the day of the experiment THP-1-Lucia NFκB cells were counted and seeded at a density of 1,000,000 cells/mL in culture medium (RPMI 1640 (Gibco, Cat #52400-025)+10% FBS (Sigma, Cat #F7524-500ML)+1% P/S (Gibco, Cat #15140-122)) by pipetting 54 μL/well in a 384 well plate. […]
(§3) For the readout, supernatant samples were thawed on ice and 5 μL sample was transferred from each well to a new 384-well plate. 20 μL of Quanti-Luc solution (Quanti-Luc powder (Invivogen, Cat #rep-qlc1) dissolved in 25 mL sterile water as indicated by the manufacturer) was added to each well after which luminescence was immediately measured on an Envision instrument.
(§4) To measure the inhibition of LPS/TNFα/IL-1β-induced NFκB-reporter activity, percentage inhibition (PIN) values were calculated for all concentrations tested, compared to controls. […]

[2] = tested on: IL-1β driven NFκB-reporter activity; test: THP1-Lucia NFκB reporter assay, IL-1β trigger; conditions: THP-1-Lucia NFκB cells, IL-1β 3 ng/mL, 24 h; read-out: average pEC50, IL-1β driven NFκB-reporter activity (converted)
Excerpt: as §1, §2, §3, §4

[3] = tested on: LPS driven NFκB-reporter activity; test: THP1-Lucia NFκB reporter assay, LPS trigger; conditions: THP-1-Lucia NFκB cells, LPS 2.5 ng/mL, 24 h; read-out: average pEC50, LPS driven NFκB-reporter activity (converted)
Excerpt: as §1, §2, §3, §4

Question: With `COc1cc2nc(C3COCCO3)cn2cc1NC(=O)c1cccn(C2CC2)c1=O` (racemic) [Compound 1, 1-cyclopropyl-N-[2-(1,4-dioxan-2-yl)-7-methoxy-imidazo[1,2-a]pyridin-6-yl]-2-oxo-pyridine-3-carboxamide] as the molecule, how does the “activity on TNFα mediated NFκB-reporter activity” value [1] read?
Answer: Its value is “no activity was observed”.

Question: What about the EC50 [2] of the same molecule?
Answer: The EC50 was 39.8 nM.

Question: What about the EC50 [3] of the same molecule?
Answer: The EC50 was 617 nM.
